Molecular target: Cyclin-dependent kinase 2/cyclin A (Homo sapiens, UniProt P24941)
Test: Inhibition of CDK2/cyclin A
Assay type: protein-complex assay

| Structure (SMILES) | IC50 [nM] |
| --- | --- |
| NC(=O)c1cn(Cc2ccccc2)c2c1CCc1cnc(NC3CCCC3)nc1-2 | 23 |
| NC(=O)c1cn(-c2ccccc2)c2c1CCc1cnc(NC3CCCC3)nc1-2 | 20 |
| CN1CCN(c2ccc(Nc3ncc4c(n3)-c3c(c(C(N)=O)cn3C)C(C)(C)C4)cc2)CC1 | 17 |
| NC(=O)c1cn(-c2ccccn2)c2c1CCc1cnc(NC3CCCC3)nc1-2 | 52 |
| COc1ccc(-n2cc(C(N)=O)c3c2-c2nc(NC4CCCC4)ncc2CC3)cc1 | 6 |
| CNC(=O)c1cn(C)c2c1C(C)(C)Cc1cnc(Nc3cccc(N4CCN(C)CC4)c3)nc1-2 | 31 |
| CNC(=O)c1cn(C)c2c1C(C)(C)Cc1cnc(Nc3ccc(N4CCOCC4)cc3)nc1-2 | 137 |
| NC(=O)c1cn(-c2ccc(S(N)(=O)=O)cc2)c2c1CCc1cnc(NC3CCCC3)nc1-2 | 5 |
| NC(=O)c1cn(CCO)c2c1CCc1cnc(NC3CCCC3)nc1-2 | 8 |
| CNC(=O)c1cn(C)c2c1C(C)(C)Cc1cnc(Nc3cccc(N4CCOCC4)c3)nc1-2 | 248 |
| CNC(=O)c1cn(C)c2c1C(C)(C)Cc1cnc(Nc3ccc(OC4CCN(C)CC4)cc3)nc1-2 | 29 |
| NC(=O)c1cn(CC(F)(F)F)c2c1CCc1cnc(NC3CCCC3)nc1-2 | 5 |
| CN1CCC(n2cc(C(N)=O)c3c2-c2nc(NC4CCCC4)ncc2CC3)CC1 | 6 |
| CNC(=O)c1cn(C)c2c1C(C)(C)Cc1cnc(Nc3cccc(OC4CCN(C)CC4)c3)nc1-2 | 47 |
| CNC(=O)c1cn(C)c2c1C(C)(C)Cc1cnc(Nc3ccc(CN4CCN(C)CC4)cc3)nc1-2 | 55 |
| CNC(=O)c1cn(C2CCN(C)CC2)c2c1CCc1cnc(NC3CCCC3)nc1-2 | 59 |
| CC(=O)N1CCC(n2cc(C(N)=O)c3c2-c2nc(NC4CCCC4)ncc2CC3)CC1 | 7 |
| CNC(=O)c1cn(C)c2c1C(C)(C)Cc1cnc(Nc3cccc(CN4CCN(C)CC4)c3)nc1-2 | 59 |
| CNC(=O)c1cn(C)c2c1C(C)(C)Cc1cnc(Nc3ccc(CN4CCOCC4)cc3)nc1-2 | 36 |
| CNC(=O)c1cn(C)c2c1CCc1cnc(NC3CCN(C)CC3)nc1-2 | 4580 |

| Structure (SMILES) | IC50 [nM] |
| --- | --- |
| CNC(=O)c1cn(C)c2c1C(C)(C)Cc1cnc(Nc3cccc(CN4CCOCC4)c3)nc1-2 | 160 |
| CNC(=O)c1cn(C)c2c1C(C)(C)Cc1cnc(Nc3ccc(N(C)C)cc3)nc1-2 | 59 |
| CNC(=O)c1cn(C)c2c1CCc1cnc(NC3CCN(C(C)=O)CC3)nc1-2 | 32 |
| Cn1cc(C(N)=O)c2c1-c1nc(NC3CCN(C(=O)c4ccccc4)CC3)ncc1CC2 | 3 |
| CNC(=O)c1cn(C)c2c1C(C)(C)Cc1cnc(Nc3cccc(N(C)C)c3)nc1-2 | 220 |
| CNC(=O)c1cn(C)c2c1C(C)(C)Cc1cnc(Nc3ccc(CN(C)C)cc3)nc1-2 | 35 |
| Cn1cc(C(N)=O)c2c1-c1nc(NCc3ccccc3)ncc1CC2 | 51.1 |
| CNC(=O)c1cn(C)c2c1CCc1cnc(NC3CCN(C(=O)c4ccccc4)CC3)nc1-2 | 25 |
| CN1CCN(C(=O)N2CCC(Nc3ncc4c(n3)-c3c(c(C(N)=O)cn3C)CC4)CC2)CC1 | 12 |
| CNC(=O)c1cn(C)c2c1C(C)(C)Cc1cnc(Nc3cccc(CN(C)C)c3)nc1-2 | 83 |
| COc1cccc(CNc2ncc3c(n2)-c2c(c(C(N)=O)cn2C)CC3)c1 | 65.9 |
| COc1ccc(CNc2ncc3c(n2)-c2c(c(C(N)=O)cn2C)CC3)cc1 | 57.9 |
| CNC(=O)c1cn(C)c2c1CCc1cnc(NC3CCN(C(=O)N4CCN(C)CC4)CC3)nc1-2 | 1120 |
| CCOC(=O)N1CCC(Nc2ncc3c(n2)-c2c(c(C(N)=O)cn2C)CC3)CC1 | 1 |
| Cn1cc(C(N)=O)c2c1-c1nc(NCc3ccc(Br)cc3)ncc1CC2 | 80.9 |
| CC(=O)Nc1ccc(CNc2ncc3c(n2)-c2c(c(C(N)=O)cn2C)CC3)cc1 | 13 |
| CCOC(=O)N1CCC(Nc2ncc3c(n2)-c2c(c(C(=O)NC)cn2C)CC3)CC1 | 57.9 |
| Cn1cc(C(N)=O)c2c1-c1nc(NC3CCN(S(C)(=O)=O)CC3)ncc1CC2 | 1 |
| Cn1cc(C(N)=O)c2c1-c1nc(NCc3ccc(S(C)(=O)=O)cc3)ncc1CC2 | 38 |
| CN1CCN(c2cccc(CNc3ncc4c(n3)-c3c(c(C(N)=O)cn3C)CC4)c2)CC1 | 104 |

| Structure (SMILES) | IC50 [nM] |
| --- | --- |
| Cn1cc(C(N)=O)c2c1-c1nc(NC3CCN(S(=O)(=O)c4ccccc4)CC3)ncc1CC2 | 4 |
| CN1CCN(c2ccc(CNc3ncc4c(n3)-c3c(c(C(N)=O)cn3C)CC4)cc2)CC1 | 17 |
| Cn1cc(C(N)=O)c2c1-c1nc(NCc3ccncc3)ncc1CC2 | 21 |
| CNC(=O)c1cn(C)c2c1CCc1cnc(NC3CCN(S(=O)(=O)c4ccccc4)CC3)nc1-2 | 5 |
| Cn1cc(C(N)=O)c2c1-c1nc(NCc3cccnc3)ncc1CC2 | 21 |
| Cn1cc(C(N)=O)c2c1-c1nc(NCc3ccccn3)ncc1CC2 | 86.9 |
| Cn1cc(C(=O)NCCO)c2c1-c1nc(Nc3ccccc3)ncc1CC2 | 74 |
| Cn1cc(C(N)=O)c2c1-c1nc(NCCN3CCOCC3)ncc1CC2 | 209 |
| Cn1cc(C(N)=O)c2c1-c1nc(NCCO)ncc1CC2 | 19 |
| CCN1CCC(Nc2ncc3c(n2)-c2c(c(C(N)=O)cn2C)CC3)CC1 | 149 |
| Cn1cc(C(=O)NCc2ccccc2)c2c1-c1nc(Nc3ccccc3)ncc1CC2 | 1050 |
| CNC(=O)c1cn(C)c2c1CCc1cnc(NC3CCCC3)nc1-2 | 97.1 |
| CC(CN(C)C)NC(=O)c1cn(C)c2c1CCc1cnc(NC3CCCC3)nc1-2 (centres undefined) | 1760 |
| CN1CCN(c2ccc(Nc3ncc4c(n3)-c3c(c(C(N)=O)cn3C)CC4)cc2)CC1 | 2 |
| CN1CCN(c2cccc(Nc3ncc4c(n3)-c3c(c(C(N)=O)cn3C)CC4)c2)CC1 | 1 |
| CN(O)C(=O)c1cn(C)c2c1CCc1cnc(NC3CCCC3)nc1-2 | 175 |
| Cn1cc(C(=O)N(O)Cc2ccccc2)c2c1-c1nc(NC3CCCC3)ncc1CC2 | 1370 |
| Cn1cc(C(N)=O)c2c1-c1nc(Nc3ccc(N4CCOCC4)cc3)ncc1CC2 | 14 |
| Cn1cc(C(N)=O)c2c1-c1nc(Nc3ccccc3)ncc1CC2(C)C | 24 |

— ChEMBL document CHEMBL1268905, “3D-QSAR and docking studies on pyrazolo[4,3-h]qinazoline-3-carboxamides as cyclin-dependent kinase 2 (CDK2) inhibitors” (Bioorg Med Chem Lett, 2010)
